From patent US9617221B2, “Kinase modulators for the treatment of cancer” (Synovo GmbH, priority 2010, dated 2017)

Key:
IFNg = IFNg gene expression in murine pancreatic cancer tumours (real time PCR); type: in vivo, mice; conditions: tumour mRNA; daily i.p. 10 μmol/kg; vehicle 1.0
Method: (§1) For treatment of pancreatic cancer, mice susceptible to pancreatic cancer were observed until cancer was apparent. Thereafter, animals were classified by ultrasound to a group of similar tumour size and were allocated to treatments: Vehicle, Gemcitabine 100 mg/kg every 5th day, or Gemcitabine plus the IL-10 inhibitor 43j ([…] i.p.), or the IL-12 stimulant 49 (10 μmol/kg/day i.p.) or all three combined at the doses specified.
(§2) Murine pancreatic cancer was induced as in Example 61. Mice carrying tumours were selected when the tumour was first detectable by ultrasound and the animals allocated to groups treated with either Vehicle, 49 alone or 43J alone or the combination of 49 and 43j. Compounds were supplied daily i.p. at 10 μmol/kg. Gene expression as determined by mRNA levels is determined by real time PCR methods using reverse transcribed templates.

IL-10 [1] = assay: IL-10 gene expression in murine pancreatic cancer tumours (real time PCR); type: in vivo, mice; conditions: tumour mRNA; daily i.p. 10 μmol/kg; vehicle 21.4
Method: as §1, §2

IL-12 [2] = assay: IL-12 gene expression in murine pancreatic cancer tumours (real time PCR); type: in vivo, mice; conditions: tumour mRNA; daily i.p. 10 μmol/kg; vehicle 3.1
Method: as §1, §2

IL-23 = IL-23 gene expression in murine pancreatic cancer tumours (real time PCR); type: in vivo, mice; conditions: tumour mRNA; daily i.p. 10 μmol/kg; vehicle 15.2
Method: as §1, §2

IL-17 = IL-17 gene expression in murine pancreatic cancer tumours (real time PCR); type: in vivo, mice; conditions: tumour mRNA; daily i.p. 10 μmol/kg; vehicle 17.8
Method: as §1, §2

IL-6 = IL-6 gene expression in murine pancreatic cancer tumours (real time PCR); type: in vivo, mice; conditions: tumour mRNA; daily i.p. 10 μmol/kg; vehicle 22.5
Method: as §1, §2

TNFa = TNFa gene expression in murine pancreatic cancer tumours (real time PCR); type: in vivo, mice; conditions: tumour mRNA; daily i.p. 10 μmol/kg; vehicle 15.2
Method: as §1, §2

IL-10 [3] = assay: IL-10 production by bone marrow derived macrophage or tumour associated macrophage; type: cell-based, C57BL/6 mice; conditions: 1 or 10 μM; stimulant such as LPS or TNFa or tumour conditioned medium
Method: (§3) A similar experiment can be performed using Bone marrow derived macrophage or Tumour associated macrophage (TAM): Mouse macrophages were derived from the bone marrow of WT, C57BL/6 mice and cultured for 7 d in DMEM medium supplemented with 10 ng/ml recombinant mouse M-CSF (R & D Systems). TAMs were isolated from the peritoneal cavity of mice in which IDB ovarian cancers had been growing i.p. for up to 10 wk. The macrophage are then treated with the compound to test at 1 or 10 μM in the presence of a stimulant such as LPS or TNFa or tumour conditioned medium.

IL-10 [4] = assay: IL-10 production by LPS-stimulated murine peritoneal macrophage (ELISA); type: cell-based, mice; conditions: murine peritoneal macrophage
Procedure, shortened: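 Peritoneal macrophages or splenocytes are harvested from mice and cultured in RPMI-1640 containing 10% fetal calf serum. LPS at 10 μg/mL activates the macrophages; Con A at 5 μg/mL activates T cells. Compounds (final ≤50 μM, ≤1% DMSO) are present throughout, and ELISA of 72 h supernatants gives cytokine output.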

IL-4 = IL-4 production, Con A, spleen; type: cell-based, mice; conditions: 5 μM, 72 h
Method: Peritoneal macrophage or splenocytes (lymphocytes and macrophage) were harvested from donor mice using standard techniques. Cells were placed in culture and stimulated with either LPS (10 μg/mL) or concanavalin A 5 μg/mL (Sigma Chemical Co., St Louis, Mo.) in RPMI-1640 medium supplemented with antibiotics, […] 2-mercaptoethanol, 10 mm HEPES buffer and 10% fetal calf serum (FCS) (see Holan et al., 1985) to stimulate macrophage and T-cells respectively. Compounds were added from DMSO stock solutions to a final concentration of 50 μM or less with DMSO not exceeding 1% of total volume. After 72 h, cell supernatant was recovered and the cytokine levels were estimated by ELISA. The effect of compounds on cytokine production was recorded as follows: […]

IL-12 [5] = assay: IL-12 production by bone marrow derived macrophage or tumour associated macrophage; type: cell-based, C57BL/6 mice; conditions: 1 or 10 μM; stimulant such as LPS or TNFa or tumour conditioned medium
Method: as §3

pancreatic cancer = assay: Survival of mice with pancreatic cancer; type: in vivo; conditions: Gemcitabine 100 mg/kg every 5th day; 43j 10 mmol/kg/d i.p.; 49 10 μmol/kg/day i.p.
Method: as §1

[6] = tested on: Lewis Lung Carcinoma Cells (LLC); assay: Subcutaneous Lewis Lung Carcinoma tumour growth; type: in vivo, C57BLK6 mice; conditions: 12.5 mg/kg p.o. once daily
Method: Lewis Lung Carcinoma Cells (LLC) are cultured by incubation in a medium which is RPMI 1640 (50%) and DMEM (50%) with a final concentration or fetal calf serum of 10%. After culture to the log phase, 10^5 cells are injected subcutaneously in […] mice. Mice are treated with substance either orally or via intraperitoneal injection.

| Structure (SMILES) | Relative Gene expression, IFNg (IFNg) | Relative Gene expression, IL-10 (IL-10 [1]) | Relative Gene expression, IL-12 (IL-12 [2]) | Relative Gene expression, IL-23 (IL-23) | Relative Gene expression, IL-17 (IL-17) | Relative Gene expression, IL-6 (IL-6) | Relative Gene expression, TNFa (TNFa) | production of IL-10 (IL-10 [3]) | IL-10 by ELISA, % of solvent treated control (IL-10 [4]; 1.25 μM inhibitor in medium) | IL-10 by ELISA, % of solvent treated control (IL-10 [4]; 5 μM inhibitor in medium) | IL-10 by ELISA, % of solvent treated control (IL-10 [4]; 20 μM inhibitor in medium) | IL-4 (Con A, spleen), amount of cytokine (IL-4) | production of IL-12 (IL-12 [5]) | survival time relative to vehicle (pancreatic cancer) | growth rate of the LLC tumour [6] |
| --- | --- | --- | --- | --- | --- | --- | --- | --- | --- | --- | --- | --- | --- | --- | --- |
| CC[C@H]1OC(=O)[C@H](C)[C@@H](O[C@H]2C[C@@](C)(OC)[C@@H](O)[C@H](C)O2)[C@H](C)[C@@H](O[C@@H]2O[C@H](C)C[C@H](N(C)CCCCCC(=O)OCCSc3nc(-c4ccc(F)cc4)c(-c4ccnc(NC5CCOCC5)c4)[nH]3)[C@H]2O)[C@](C)(O)C[C@@H](C)CN(C)[C@H](C)[C@@H](O)[C@]1(C)O [Compound 43j] | 4.2 | 3.1 | 3.4 | 11.0 | 14.6 | 15.2 | 13.1 | inhibits the production of IL-10 | – | – | – | – | – | – | – |
| Nc1c(C(=O)c2cccc(OCC(O)CO)c2)cnn1-c1ccc(F)cc1 (stereo not shown) [Compound 49, [5-Amino-1-(4-fluoro-phenyl)-1H-pyrazol-4-yl]-[3-(2,3-dihydroxy-propoxy)-phenyl]-methanone] | 6.3 | 8.9 | 28.8 | 2.1 | 15.2 | 18.3 | 21.4 | – | 41 % of solvent treated control | 42 % of solvent treated control | 13 % of solvent treated control | 188 % of control treated with solvent alone | stimulates the production of IL-12 | – | – |
| Nc1ccn([C@@H]2O[C@H](CO)[C@@H](O)C2(F)F)c(=O)n1 [Gemcitabine] | – | – | – | – | – | – | – | – | – | – | – | – | – | 1.5 fold | – |
| CCc1nc(-c2cccc(C)c2)c(-c2ccnc(NC(=O)c3ccccc3)c2)s1 [TAK-715] | – | – | – | – | – | – | – | – | – | – | – | – | – | – | reduction in the growth rate of the LLC tumour |
